Source: ChEMBL document CHEMBL1275576, “In vitro activity of tomopenem (CS-023/RO4908463) against anaerobic bacteria” (Antimicrob Agents Chemother, 2009)

Experiments:
Type in all cases: functional
[1] = system: Paeniclostridium sordellii; assay: Antimicrobial activity against Clostridium sordellii ATCC 9714 by agar dilution method in presence of 5% laked sheep blood; details: Paraclostridium sordellii
[2] = system: Streptococcus intermedius; assay: Antimicrobial activity against Streptococcus intermedius ATCC 27335 by agar dilution method in presence of 5% laked sheep blood
[3] = system: Prevotella buccae; assay: Antimicrobial activity against Prevotella buccae ATCC 33574 by agar dilution method in presence of 5% laked sheep blood; details: Segatella buccae
[4] = system: Bacteroides fragilis; assay: Antimicrobial activity against carbapenemase-producing Bacteroides fragilis GAI 30079 by agar dilution method in presence of 5% laked sheep blood
[5] = system: Enterocloster clostridioformis; assay: Antimicrobial activity against Clostridium clostridioforme NCTC 11224 by agar dilution method in presence of 5% laked sheep blood
[6] = system: Staphylococcus saccharolyticus; assay: Antimicrobial activity against Staphylococcus saccharolyticus ATCC 14953 by agar dilution method in presence of 5% laked sheep blood
[7] = system: Veillonella parvula; assay: Antimicrobial activity against Veillonella parvula ATCC 10790 by agar dilution method in presence of 5% laked sheep blood
[8] = system: Bacteroides uniformis; assay: Antimicrobial activity against Bacteroides uniformis ATCC 8492 by agar dilution method in presence of 5% laked sheep blood
[9] = system: Campylobacter gracilis; assay: Antimicrobial activity against Campylobacter gracilis JCM 8538 by agar dilution method in presence of 5% laked sheep blood
[10] = system: Peptoniphilus indolicus; assay: Antimicrobial activity against Peptoniphilus indolicus GAI 0915 by agar dilution method in presence of 5% laked sheep blood
[11] = Antimicrobial activity against Bifidobacterium adolescentis ATCC 15703 by agar dilution method in presence of 5% laked sheep blood
[12] = system: Prevotella oris; assay: Antimicrobial activity against Prevotella oris ATCC 33573 by agar dilution method in presence of 5% laked sheep blood; details: Segatella oris
[13] = system: Limosilactobacillus fermentum; assay: Antimicrobial activity against Lactobacillus fermentum JCM 1173 by agar dilution method in presence of 5% laked sheep blood
[14] = system: Parvimonas micra; assay: Antimicrobial activity against Parvimonas micra VPI 5464-1 by agar dilution method in presence of 5% laked sheep blood
[15] = system: Thomasclavelia ramosa; assay: Antimicrobial activity against Clostridium ramosum ATCC 25582 by agar dilution method in presence of 5% laked sheep blood
[16] = system: Lactobacillus salivarius; assay: Antimicrobial activity against Lactobacillus salivarius subsp. salivarius JCM 1231 by agar dilution method in presence of 5% laked sheep blood; details: Ligilactobacillus salivarius
[17] = system: Porphyromonas asaccharolytica; assay: Antimicrobial activity against Porphyromonas asaccharolyticus ATCC 25260 by agar dilution method in presence of 5% laked sheep blood; details: DSM 20707
[18] = system: Capnocytophaga ochracea; assay: Antimicrobial activity against Capnocytophaga ochracea GAI 5586 by agar dilution method in presence of 5% laked sheep blood
[19] = system: Atopobium parvulum; assay: Antimicrobial activity against Atopobium parvulum VPI 0546 by agar dilution method in presence of 5% laked sheep blood; details: Lancefieldella parvula
[20] = system: Bacteroides eggerthii DSM 20697; assay: Antimicrobial activity against Bacteroides eggerthii ATCC 27754 by agar dilution method in presence of 5% laked sheep blood
[21] = system: Porphyromonas gingivalis; assay: Antimicrobial activity against Porphyromonas gingivalis ATCC 33277 by agar dilution method in presence of 5% laked sheep blood
[22] = system: Lactobacillus brevis; assay: Antimicrobial activity against Lactobacillus brevis subsp. brevis JCM 1059 by agar dilution method in presence of 5% laked sheep blood; details: Levilactobacillus brevis
[23] = system: Bifidobacterium pseudolongum; assay: Antimicrobial activity against Bifidobacterium pseudolongum ATCC 25526 by agar dilution method in presence of 5% laked sheep blood
[24] = system: Gemella morbillorum; assay: Antimicrobial activity against Gemella morbillorum ATCC 27824 by agar dilution method in presence of 5% laked sheep blood
[25] = system: Bacteroides fragilis; assay: Antimicrobial activity against Bacteroides fragilis GAI 0558 by agar dilution method in presence of 5% laked sheep blood
[26] = system: Anaerococcus prevotii; assay: Antimicrobial activity against Anaerococcus prevotii ATCC 9321 by agar dilution method in presence of 5% laked sheep blood
[27] = system: Peptoniphilus asaccharolyticus; assay: Antimicrobial activity against Peptoniphilus asaccharolyticus WAL 3218 by agar dilution method in presence of 5% laked sheep blood
[28] = system: Limosilactobacillus reuteri; assay: Antimicrobial activity against Lactobacillus reuteri JCM 1112 by agar dilution method in presence of 5% laked sheep blood
[29] = system: Bacteroides ovatus; assay: Antimicrobial activity against Bacteroides ovatus ATCC 8483 by agar dilution method in presence of 5% laked sheep blood
[30] = system: Phocaeicola vulgatus; assay: Antimicrobial activity against Bacteroides vulgatus GAI 0673 by agar dilution method in presence of 5% laked sheep blood
[31] = system: Sutterella wadsworthensis; assay: Antimicrobial activity against Sutterella wadsworthensis ATCC 51579 by agar dilution method in presence of 5% laked sheep blood
[32] = system: Bifidobacterium breve; assay: Antimicrobial activity against Bifidobacterium breve ATCC 15700 by agar dilution method in presence of 5% laked sheep blood
[33] = system: Bacteroides fragilis; assay: Antimicrobial activity against Bacteroides fragilis GAI 5562 by agar dilution method in presence of 5% laked sheep blood
[34] = system: Lactiplantibacillus plantarum; assay: Antimicrobial activity against Lactobacillus plantarum JCM 1149 by agar dilution method in presence of 5% laked sheep blood
[35] = system: Bacteroides fragilis; assay: Antimicrobial activity against Bacteroides fragilis GAI 10150 by agar dilution method in presence of 5% laked sheep blood
[36] = Antimicrobial activity against Bifidobacterium longum subsp. longum ATCC 15707 by agar dilution method in presence of 5% laked sheep blood
[37] = system: Clostridioides difficile; assay: Antimicrobial activity against Clostridium difficile GAI 10029 by agar dilution method in presence of 5% laked sheep blood
[38] = system: Bacteroides thetaiotaomicron; assay: Antimicrobial activity against Bacteroides thetaiotaomicron ATCC 29741 by agar dilution method in presence of 5% laked sheep blood
[39] = system: Prevotella bivia; assay: Antimicrobial activity against Prevotella bivia ATCC 29303 by agar dilution method in presence of 5% laked sheep blood; details: DSM 20514
[40] = Antimicrobial activity against Veillonella dispar ATCC 17748 by agar dilution method in presence of 5% laked sheep blood
[41] = system: Bifidobacterium bifidum; assay: Antimicrobial activity against Bifidobacterium bifidum JCM 1255 by agar dilution method in presence of 5% laked sheep blood
[42] = system: Streptococcus constellatus; assay: Antimicrobial activity against Streptococcus constellatus ATCC 27923 by agar dilution method in presence of 5% laked sheep blood
[43] = Antimicrobial activity against Finegoldia magna ATCC 29328 by agar dilution method in presence of 5% laked sheep blood
[44] = system: Schaalia odontolytica; assay: Antimicrobial activity against Actinomyces odontolyticus GAI 91002 by agar dilution method in presence of 5% laked sheep blood
[45] = system: Eggerthella lenta; assay: Antimicrobial activity against Eggerthella lenta ATCC 25559 by agar dilution method in presence of 5% laked sheep blood
[46] = system: Fusobacterium necrophorum; assay: Antimicrobial activity against Fusobacterium necrophorum ATCC 25286 by agar dilution method in presence of 5% laked sheep blood

Measured: MIC

C[C@@H](O)[C@H]1C(=O)N2C(C(=O)O)=C(S[C@@H]3CN[C@H](CNS(N)(=O)=O)C3)[C@H](C)[C@H]12 [DORIPENEM]
4 µg/mL: [37]
2 µg/mL: [35]
0.03 µg/mL: [17] | [27]
0.06 µg/mL: [6] | [7] | [13] | [40]
0.125 µg/mL: [2] | [9] | [12] | [14] | [18] | [22] | [28] | [34] | [41]
≤ 0.015 µg/mL: [1] | [10] | [21] | [24] | [46]
0.5 µg/mL: [16] | [23] | [25] | [29] | [33] | [38] | [39] | [42]
1 µg/mL: [15] | [19] | [32] | [36]
> 128 µg/mL: [4]
0.25 µg/mL: all other assays above
